From ChEMBL document CHEMBL3616389, “Identification of Novel D-Aspartate Oxidase Inhibitors by in Silico Screening and Their Functional and Structural Characterization in Vitro” (J Med Chem, 2015)
Active and inactive are the calls of the source. The rule behind the calls is not given here.

What was measured:
[1] = target: T1, D-aspartate oxidase (Homo sapiens, UniProt Q99489); test: Inhibition of human recombinant DDO expressed in Escherichia coli BL21(DE3) using D-Asp and D-Ala assessed as 2-oxo acid production after 10 mins by colorimetric assay
T1 sequence (Q99489 whole entry): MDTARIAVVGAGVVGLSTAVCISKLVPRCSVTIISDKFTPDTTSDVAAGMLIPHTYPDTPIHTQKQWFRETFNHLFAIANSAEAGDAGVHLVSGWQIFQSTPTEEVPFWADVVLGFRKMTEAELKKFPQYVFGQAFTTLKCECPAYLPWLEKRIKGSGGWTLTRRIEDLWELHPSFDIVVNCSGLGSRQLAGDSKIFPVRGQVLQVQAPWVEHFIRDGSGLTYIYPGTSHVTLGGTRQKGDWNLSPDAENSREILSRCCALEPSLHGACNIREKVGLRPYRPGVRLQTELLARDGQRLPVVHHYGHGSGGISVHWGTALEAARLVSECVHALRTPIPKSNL

[2] = target: D-amino-acid oxidase (Homo sapiens, UniProt P14920); test: Inhibition of human recombinant DAO expressed in Escherichia coli BL21(DE3) using D-Asp and D-Ala assessed as 2-oxo acid production after 10 mins by colorimetric assay
[3] = target: T2, D-aspartate oxidase (Homo sapiens) (UniProt Q99489); test: Competitive inhibition of human recombinant DDO expressed in Escherichia coli BL21(DE3) using D-Asp by Lineweaver-Burk plot analysis
T2 sequence (whole entry): T1 sequence (Q99489 whole entry)

[4] = target: T3, D-aspartate oxidase (Rattus norvegicus) (UniProt D3ZDM7); test: (§1) Inhibition of rat recombinant DDO using D-Asp
T3 sequence (whole entry): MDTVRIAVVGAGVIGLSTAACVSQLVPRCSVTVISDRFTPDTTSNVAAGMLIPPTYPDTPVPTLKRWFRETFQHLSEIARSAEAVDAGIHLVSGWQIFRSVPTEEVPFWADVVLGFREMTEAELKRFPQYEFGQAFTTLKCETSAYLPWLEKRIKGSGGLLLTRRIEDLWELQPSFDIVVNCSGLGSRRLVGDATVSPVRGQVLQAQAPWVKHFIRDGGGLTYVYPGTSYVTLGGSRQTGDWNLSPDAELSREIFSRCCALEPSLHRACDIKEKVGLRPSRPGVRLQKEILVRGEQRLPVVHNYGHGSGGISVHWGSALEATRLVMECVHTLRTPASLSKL

[5] = target: T4, D-aspartate oxidase (Rattus norvegicus, UniProt D3ZDM7); test: as §1
T4 sequence (D3ZDM7 whole entry): T3 sequence (whole entry)

[6] = target: T5, D-aspartate oxidase (Mus musculus, UniProt Q922Z0); test: Inhibition of mouse recombinant DDO using D-Asp
T5 sequence (Q922Z0 whole entry): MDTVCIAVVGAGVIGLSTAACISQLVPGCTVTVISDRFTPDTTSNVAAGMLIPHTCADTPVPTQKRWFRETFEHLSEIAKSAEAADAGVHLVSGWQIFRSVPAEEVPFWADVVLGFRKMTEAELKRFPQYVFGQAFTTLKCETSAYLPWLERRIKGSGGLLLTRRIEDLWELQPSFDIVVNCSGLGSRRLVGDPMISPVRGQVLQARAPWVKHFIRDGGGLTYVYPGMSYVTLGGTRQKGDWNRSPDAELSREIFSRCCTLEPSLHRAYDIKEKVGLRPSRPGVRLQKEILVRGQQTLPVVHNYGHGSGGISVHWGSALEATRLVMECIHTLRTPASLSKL

[7] = test system: HeLa; test: Effect on L-Asp level in human HeLa cells at 250 uM after 24 hrs by HPLC analysis; type: functional, cell-based
[8] = target: T1, D-aspartate oxidase
[9] = target: T2, D-aspartate oxidase (Homo sapiens); details: HeLa, 250 uM
[10] = target: T2, D-aspartate oxidase (Homo sapiens); details: HeLa, 250 uM; remark: listed apart in the source
[11] = target: T2, D-aspartate oxidase (Homo sapiens); details: HeLa, 250 uM; remark: listed apart in the source
[12] = test system: HeLa; test: Effect on D-Asp level in human HeLa cells at 1000 uM after 24 hrs by HPLC analysis; type: functional, cell-based
[13] = test system: HeLa; test: Effect on L-Asp level in human HeLa cells at 1000 uM after 24 hrs by HPLC analysis; type: functional, cell-based
[14] = target: T2, D-aspartate oxidase (Homo sapiens); details: HeLa, 1000 uM
[15] = target: T2, D-aspartate oxidase (Homo sapiens); details: HeLa, 1000 uM; remark: listed apart in the source
[16] = test system: HeLa; test: Effect on D-Asp level in human HeLa cells at 100 uM after 24 hrs by HPLC analysis; type: functional, cell-based
[17] = test system: HeLa; test: Effect on L-Asp level in human HeLa cells at 100 uM after 24 hrs by HPLC analysis; type: functional, cell-based

Chain of D-amino-acid oxidase (P14920 whole entry): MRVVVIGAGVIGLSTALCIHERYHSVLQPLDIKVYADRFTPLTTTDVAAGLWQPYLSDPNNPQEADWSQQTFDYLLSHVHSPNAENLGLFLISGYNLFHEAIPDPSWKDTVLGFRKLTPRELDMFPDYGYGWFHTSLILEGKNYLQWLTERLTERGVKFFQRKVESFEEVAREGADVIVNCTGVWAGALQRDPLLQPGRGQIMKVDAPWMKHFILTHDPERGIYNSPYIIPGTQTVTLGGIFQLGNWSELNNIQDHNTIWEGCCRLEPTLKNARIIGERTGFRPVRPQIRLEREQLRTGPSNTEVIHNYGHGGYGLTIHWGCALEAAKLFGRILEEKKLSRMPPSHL

Row | SMILES | IC50 [1] [µM] | IC50 [2] [µM] | further results
1 | Nc1ccc(C(=O)O)nc1 | > 10000 | > 10000 | 
2 | Nc1cc(C(=O)O)ccn1 | > 100 | > 100 | 
3 | O=C(O)c1ncccc1O | > 10000 | 2480 | 
4 | Nc1cccnc1 | > 10000 | > 10000 | 
5 | O=C(O)c1cncc(F)c1 [5-FLUORONICOTINIC ACID] | > 10000 |  | 
6 | Nc1cccc(C(=O)O)n1 | > 100 | > 100 | 
7 | O=C(O)c1cncc(C(F)(F)F)c1 | > 10000 |  | 
8 | O=C(O)c1cccnc1 [NIACIN] | 2780 | 1130 | 
9 | Nc1ccc(Cl)cc1C(=O)O | > 10000 | 3930 | 
10 | Nc1cncc(C(=O)O)c1 | 21.9 | > 2500 | inhibition [3]: Active; inhibition [4]: Dose-dependent effect; Ki [5]: 5.89 µM; Ki [6]: 8.69 µM; Activity [7]: inactive; Ki [8]: 3.8 µM; inhibition [9]: Active; inhibition [10]: Active; inhibition [11]: inactive
11 | O=C(O)c1cncc(O)c1 | 3350 | > 10000 | 
12 | NC(=O)c1csc(C(=O)O)c1 | > 5000 | 347 | 
13 | Cc1cc(C(=O)O)c(N)s1 | 4250 | 1440 | 
14 | O=C(O)c1cncc(-c2ccccc2)c1 | > 5000 |  | 
15 | Nc1cccnc1C(=O)O | > 1000 | > 1000 | 
16 | O=C(O)c1cc2ccccc2n1O | > 1000 | 1.34 | 
17 | Nc1cnccc1C(=O)O | > 5000 | > 5000 | 
18 | Cc1cncc(C(=O)O)c1 | 5470 | 1500 | 
19 | O=C(O)c1cncc(S(=O)(=O)O)c1 | > 10000 |  | 

Row | SMILES | IC50 [1] [µM] | IC50 [2] [µM] | further results
20 | O=C(O)c1cc(Cl)ccc1O [5-CHLOROSALICYLIC ACID] | > 10000 | 3670 | 
21 | CNc1cncc(C(=O)O)c1 | 3540 | > 10000 | 
22 | O=C(O)c1cc(F)ccc1O | > 10000 | 1050 | 
23 | O=C(O)CC(=O)O [MALONIC ACID] | 879 | > 10000 | inhibition [3]: Active; Ki [5]: 1560 µM; Ki [6]: 1220 µM; Activity [12]: inactive; Activity [13]: inactive; Ki [8]: 153 µM; inhibition [14]: inactive; inhibition [15]: inactive
24 | O=C(O)c1cn2cnnc2nc1O |  | > 500 | inhibition [4]: Dose-dependent effect; Ki [5]: 65.9 µM; Ki [6]: 32.6 µM; Activity [16]: inactive; Activity [17]: inactive
25 | COc1cncc(C(=O)O)c1 | > 10000 |  | 
26 | O=C(O)c1cncc(Br)c1 | > 10000 |  | 
27 | Nc1ncccc1C(=O)O | > 1000 | > 1000 | 
28 | O=C(O)c1ccccc1 [BENZOIC ACID] | > 10000 | 134 | 
29 | O=C(O)c1cncc([N+](=O)[O-])c1 | > 10000 |  | 
30 | Nc1ccncc1C(=O)O | > 100 | > 100 | 
31 | Nc1ccnc(C(=O)O)c1 | > 100 | > 100 | 
32 | Nc1ccc(C(=O)O)cn1 | 2360 | > 2500 | 
33 | Nc1cccc(C(=O)O)c1 [3-AMINOBENZOIC ACID] | > 10000 | 392 | 
34 | O=C(O)c1cncc(C(=O)O)c1 | > 10000 |  | 
35 | O=C(O)c1cncc(Cl)c1 | > 10000 |  | 
36 | CN(C)c1cncc(C(=O)O)c1 | > 1000 |  | 
37 | Cc1ccc(C(=O)O)c(O)n1 | > 10000 | > 10000 | 
